The values below come from patent publication US7524962B2, “Biphenyl compounds useful as muscarinic receptor antagonists” (Theravance, Inc., priority 2004, dated 2009).

In the assay the target is T1, hM3 muscarinic receptor subtype (Homo sapiens, UniProt P20309).
T1 construct: expressed in transfected cells; crude membranes
Put plainly: Radioligand binding assay ([3H]-NMS displacement), CHO cell membranes. As to conditions: [3H]-NMS at 1 nM, CHO cell membranes expressing hM3, 60 minutes at 37° C.; read-out: Ki value for the M3 muscarinic receptor subtype. Here is the method:
A. Membrane Preparation from Cells Expressing hM1, hM2, hM3 and hM4 Muscarinic Receptor Subtypes
CHO (Chinese hamster ovary) cell lines stably expressing cloned human hM1, hM2, hM3 and hM4 muscarinic receptor subtypes, respectively, were grown to near confluency in medium consisting of HAM's F-12 supplemented with 10% FBS (Fetal Bovine Serum) and 250 μg/mL Geneticin. The cells were grown in a 5% CO2, 37° C. incubator and lifted with 2 mM EDTA in dPBS. Cells were collected by 5 minute centrifugation at 650×g, and cell pellets were either stored frozen at −80° C. or membranes were prepared immediately. […] The protein concentration of the membrane suspension was determined by the method described in Lowry, O. et al., Journal of Biochemistry 193:265 (1951). […]
Radioligand binding assays were performed in 96-well microtiter plates in a total assay volume of 100 μL. […] Filter plates were rinsed three times with wash buffer (10 mM HEPES) to remove unbound radioactivity. […] The plates were then counted in a PerkinElmer Topcount liquid scintillation counter (PerkinElmer Inc., Wellesley, Mass.). Binding data were analyzed by nonlinear regression analysis with the GraphPad Prism Software package (GraphPad Software, Inc., San Diego, Calif.) using the one-site competition model. […]

T1 sequence (P20309 whole entry): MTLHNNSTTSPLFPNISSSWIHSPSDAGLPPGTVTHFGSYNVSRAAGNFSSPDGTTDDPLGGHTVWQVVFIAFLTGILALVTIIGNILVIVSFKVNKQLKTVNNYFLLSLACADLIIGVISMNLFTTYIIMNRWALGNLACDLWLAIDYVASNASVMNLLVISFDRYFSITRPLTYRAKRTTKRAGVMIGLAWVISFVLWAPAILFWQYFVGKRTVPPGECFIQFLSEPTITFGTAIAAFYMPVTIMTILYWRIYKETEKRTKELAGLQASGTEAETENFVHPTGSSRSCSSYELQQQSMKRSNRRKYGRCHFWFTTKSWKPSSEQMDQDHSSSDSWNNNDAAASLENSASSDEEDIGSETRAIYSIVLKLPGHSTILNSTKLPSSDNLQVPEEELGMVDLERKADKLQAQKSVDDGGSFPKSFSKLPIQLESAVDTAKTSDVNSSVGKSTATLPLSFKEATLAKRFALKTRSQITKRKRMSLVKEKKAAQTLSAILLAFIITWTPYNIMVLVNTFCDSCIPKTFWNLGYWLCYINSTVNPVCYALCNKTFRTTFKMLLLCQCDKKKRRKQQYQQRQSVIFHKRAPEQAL

In the case of `NC(=O)C1CCN(CCCCCNC(=O)CCN2CCC(OC(=O)Nc3ccccc3-c3ccccc3)CC2)CC1` [Example 1, Biphenyl-2-ylcarbamic Acid 1-{2-[5-(4-Carbamoylpiperidin-1-yl)pentylcarbamoyl]ethyl}piperidin-4-yl Ester], the Ki (commonly the equilibrium dissociation constant of an inhibitor or competing ligand from its target) is less than 5 nM.
